Measurements taken from article PMC11678869, “Functional Role of Odorant-Binding Proteins in Response to Sex Pheromone Component Z8-14:Ac in Grapholita molesta (Busck)” (Insects, 2024).
Read-outs that look alike come from different tables or passages of the source.

How the values were obtained:
rGmolGOBP1 = rGmolGOBP1 (Grapholita molesta, UniProt H9XTU5); experiment: Fluorescence competitive binding assay with 1-NPN probe; settings: for Ki: calculated from IC50 and Kd of 1-NPN
Text: (§1) Previous researchers have successfully expressed rGmolPBP1, rGmolPBP2, rGmolPBP3, rGmolGOBP1, and rGmolGOBP2 proteins using prokaryotic expression systems. In this article, the DNA sequences of these five GmolPBPs and GmolGOBPs, with the signal peptides removed and restriction sites on both ends, were inserted into the expression vector pET28a(+) linearized with the same restriction enzyme. These vectors were then transformed into Escherichia coli BL21(DE3) and induced by isopropyl-β-d-thiogalactoside (IPTG). Since all five recombinant proteins were expressed in inclusion bodies, they were denatured using 8 M urea and then renatured using a cysteine/cystine REDOX system. The reduced recombinant proteins were purified using an Ni-NTA His Bind Resin column (7Sea Pharmatech Co., Ltd., Shanghai, China). Non-target proteins were washed off with washing buffer (20 mM Tris-HCl (pH 7.4), 20 mM imidazole, 1 mM PMSF, and 250 mM NaCl), and then the target proteins were eluted with elution buffer (20 mM Tris-HCl (pH 7.4), 1 mM PMSF, and 250 mM NaCl) with an increasing concentration of imidazole (50, 100, and 200 mM). Five milliliters of eluents with high target protein content and low levels of contaminants were collected and placed in dialysis tubing (Coolaber, Beijing, China) with a molecular weight cut-off of 3.5 kDa to remove NaCl and imidazole. The purified soluble proteins were stored at −80 °C before use.
(§2) The binding affinities of three rGmolPBPs and two rGmolGOBPs for Z8-14:Ac were determined using an F-2700 fluorescence spectrophotometer (Hitachi, Tokyo, Japan). First, we measured the dissociation constants (Kd) of the rGmolPBPs (or rGmolGOBPs) binding to 1−NPN. Each protein was diluted to 2 μM with 20 mM Tris-HCl buffer (pH 7.4); then, 2 mL of the protein solution was transferred to a quartz cuvette and titrated with 1 mM 1−NPN to a final concentration of 1–18 μM. As the doses of 1−NPN were increased, the increasing amplitude of the fluorescence intensity decreased, and finally, the binding of the protein to 1−NPN reached saturation. The Kd values were calculated using the nonlinear regression method and the Scatchard equation. Second, we measured the inhibitory constant (Ki) of Z8-14:Ac’s competitive binding with each rGmolPBP (or rGmolGOBP) from the protein/1−NPN complex. The initial fluorescence intensity values were measured after a 2 min reaction in 2 mL solution of 20 mM Tris-HCl (pH 7.4) containing 2 µM rGmolPBP (or rGmolGOBP) protein and 2 µM 1−NPN. Then, the solution was titrated with aliquots of 1 mM Z8-14:Ac to obtain final concentrations in the range of 1–14 µM, and the fluorescence intensity value of each reaction was recorded. The Ki values were calculated using the following equation: Ki = [IC50]/(1 + [1 − NPN]/Kd) where IC50 is the concentration of Z8-14:Ac when half of the initial fluorescence intensity value of the rGmolPBP (or GmolGOBP)/1−NPN complex is replaced, [1 − NPN] represents the concentration of free 1−NPN, and Kd is the dissociation constant of the rGmolPBP (or GmolGOBP)/1−NPN complex.

rGmolGOBP2 = rGmolGOBP2 (Grapholita molesta, UniProt H9XTU6); experiment: as above
Sequence of rGmolGOBP2 (H9XTU6 entry or part of it): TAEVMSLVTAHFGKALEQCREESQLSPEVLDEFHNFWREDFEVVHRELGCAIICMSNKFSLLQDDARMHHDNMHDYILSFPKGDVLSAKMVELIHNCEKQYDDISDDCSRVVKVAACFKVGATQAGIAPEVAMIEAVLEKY
Text: as §1, §2

rGmolPBP1 = rGmolPBP1 (Grapholita molesta, UniProt A0A2R4SBD6); experiment: as above
Sequence of rGmolPBP1 (A0A2R4SBD6 entry or part of it): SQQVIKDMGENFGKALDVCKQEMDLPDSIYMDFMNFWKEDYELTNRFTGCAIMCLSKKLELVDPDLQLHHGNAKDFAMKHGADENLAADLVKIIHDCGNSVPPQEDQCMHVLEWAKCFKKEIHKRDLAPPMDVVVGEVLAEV
Text: as §1, §2

rGmolPBP2 (wild-type) = rGmolPBP2 (wild-type) (Grapholita molesta, UniProt A0A059VC28); experiment: as above
Sequence of rGmolPBP2 (wild-type) (A0A059VC28 entry or part of it): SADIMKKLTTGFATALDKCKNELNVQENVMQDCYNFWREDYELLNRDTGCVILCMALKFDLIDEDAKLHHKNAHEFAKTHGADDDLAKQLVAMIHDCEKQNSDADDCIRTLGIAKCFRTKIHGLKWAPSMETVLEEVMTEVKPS
Text: as §1, §2

rGmolPBP3 = rGmolPBP3 (Grapholita molesta, UniProt A0A059VBP3); experiment: as above
Sequence of rGmolPBP3 (A0A059VBP3 entry or part of it): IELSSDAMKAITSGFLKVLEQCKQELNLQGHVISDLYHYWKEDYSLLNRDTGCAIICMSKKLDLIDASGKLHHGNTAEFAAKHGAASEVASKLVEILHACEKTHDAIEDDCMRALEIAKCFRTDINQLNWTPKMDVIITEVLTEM
Text: as §1, §2

PFM male antennae = experiment: Electroantennogram (EAG) analysis; design: species or system Grapholita funebrana; settings: 20, 200 and 2000 μg doses
Experimental: Electroantennogram (EAG) equipment (Syntech, Hilversum, The Netherlands) was used to record the antennal responses of the OFM and PFM adults to Z8-12:Ac, E8-12:Ac, Z8-12:OH, Z8-14:Ac, and Z10-14:Ac. These sex pheromone compounds were diluted with liquid paraffin to prepare a stimulus solution of 100 μg/μL, which was subsequently diluted to 10 and 1 μg/μL. Antenna from 3-day-old OFM and 2- to 4-day-old PFM virgin males were excised at its base, with the distal part of the terminal segment being removed. Then, the treated antenna was attached to electrode holders with SpectraR360 conducting gel. A stimulus controller (model CS-55, Syntegon Technology, Waiblingen, Germany) continuously supplied a humidified air stream at a rate of 500 mL/min. Then, 20 μL of each stimulus solution was adsorbed onto a twice-folded filter paper strip (0.5 cm × 4 cm) placed on the wide section of a l mL pipette tip, which served as an odorant cartridge. Vapor stimuli were delivered by an air compressor into the constant air stream described above, flowing in a copper delivery tube (i.d. 8 mm) with the outlet positioned approximately 1 cm from the antenna. The EAG amplitude tests of the OFM and PFM males’ responses to sex pheromones started with solvent control stimuli (20 μL of liquid paraffin), followed by stimulation with 20, 200, and 2000 μg doses (20 μL of 1.0, 10.0, and 100.0 μg/μL of liquid paraffin solutions, respectively) of stimulus in sequence. The solvent control was performed at the end of the run. To control for variations among antennae, each sample was tested on 10 antennae of different males. The EAG signals and data were analyzed using EAG 2000 software (Syntech, Hilversum, The Netherlands). The corrected EAG amplitude value = absolute EAG amplitude value − (EAGck1 + EAGck2)/2, where EAGck1 and EAGck2 represent the absolute EAG amplitude values of the solvent control before and after measuring each stimulus, respectively. The relative EAG response of the OFM and PFM males to the same doses of sex pheromones were subjected to an analysis of independent sample t-test (p = 0.05) using SPSS version 23.0 (IBM).

[1] = 2 μM protein, 2 μM 1-NPN, pH 7.4, read-out: IC50 (displacement of 1-NPN)
[2] = calculated from IC50 and Kd of 1-NPN

Sequence of rGmolGOBP1 (H9XTU5 entry or part of it): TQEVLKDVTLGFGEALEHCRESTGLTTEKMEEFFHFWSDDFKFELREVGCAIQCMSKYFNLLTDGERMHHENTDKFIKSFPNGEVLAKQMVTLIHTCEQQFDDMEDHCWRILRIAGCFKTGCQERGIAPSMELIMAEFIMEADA

In the case of `CCCCC/C=C\CCCCCCCOC(C)=O` [Z8-14:Ac, (Z)-8-tetradecenyl acetate], the IC50 (rGmolGOBP1; [1]) is reported as over 14000 nM, the Ki (rGmolGOBP1) is reported as “could not be calculated” and the Ki (rGmolGOBP1; read-out: Ki) is reported as over 14000 nM. For the same molecule, the IC50 (rGmolGOBP2; [1]) was 3530 ± 220 nM, the Ki (rGmolGOBP2; [2]) was 2860 ± 180 nM and the IC50 (rGmolPBP1; [1]) was 2930 ± 70 nM. For the same molecule, the Ki (rGmolPBP1; [2]) was 1660 ± 40 nM, the IC50 (rGmolPBP2 (wild-type); [1]) was 1260 ± 40 nM and the Ki (rGmolPBP2 (wild-type); [2]) was 660 ± 20 nM. The IC50 (rGmolPBP3; [1]) was 2780 ± 320 nM, the Ki (rGmolPBP3; [2]) was 2560 ± 270 nM and the “EAG response of PFM males” value (PFM male antennae) was “moderate EAG response”.
